Laboratory results taken from patent US11725011B2, “Bicyclic urea kinase inhibitors and uses thereof” (The Broad Institute, Inc., priority 2016, dated 2023).

Key:
SIK1 = SIK1 (Homo sapiens (Human), UniProt P57059); experiment: Percent activity against SIK1 at 1 μM; type: biochemical; settings: for SIK1 % ACTIVITY: compound at 1 μM, approximate Km for ATP
SIK2 = SIK2 (Homo sapiens (Human), UniProt Q9H0K1); experiment: Percent activity against SIK2 at 1 μM; type: biochemical; settings: for SIK2 % ACTIVITY: compound at 1 μM, approximate Km for ATP
Chain of SIK2 (Q9H0K1 whole entry): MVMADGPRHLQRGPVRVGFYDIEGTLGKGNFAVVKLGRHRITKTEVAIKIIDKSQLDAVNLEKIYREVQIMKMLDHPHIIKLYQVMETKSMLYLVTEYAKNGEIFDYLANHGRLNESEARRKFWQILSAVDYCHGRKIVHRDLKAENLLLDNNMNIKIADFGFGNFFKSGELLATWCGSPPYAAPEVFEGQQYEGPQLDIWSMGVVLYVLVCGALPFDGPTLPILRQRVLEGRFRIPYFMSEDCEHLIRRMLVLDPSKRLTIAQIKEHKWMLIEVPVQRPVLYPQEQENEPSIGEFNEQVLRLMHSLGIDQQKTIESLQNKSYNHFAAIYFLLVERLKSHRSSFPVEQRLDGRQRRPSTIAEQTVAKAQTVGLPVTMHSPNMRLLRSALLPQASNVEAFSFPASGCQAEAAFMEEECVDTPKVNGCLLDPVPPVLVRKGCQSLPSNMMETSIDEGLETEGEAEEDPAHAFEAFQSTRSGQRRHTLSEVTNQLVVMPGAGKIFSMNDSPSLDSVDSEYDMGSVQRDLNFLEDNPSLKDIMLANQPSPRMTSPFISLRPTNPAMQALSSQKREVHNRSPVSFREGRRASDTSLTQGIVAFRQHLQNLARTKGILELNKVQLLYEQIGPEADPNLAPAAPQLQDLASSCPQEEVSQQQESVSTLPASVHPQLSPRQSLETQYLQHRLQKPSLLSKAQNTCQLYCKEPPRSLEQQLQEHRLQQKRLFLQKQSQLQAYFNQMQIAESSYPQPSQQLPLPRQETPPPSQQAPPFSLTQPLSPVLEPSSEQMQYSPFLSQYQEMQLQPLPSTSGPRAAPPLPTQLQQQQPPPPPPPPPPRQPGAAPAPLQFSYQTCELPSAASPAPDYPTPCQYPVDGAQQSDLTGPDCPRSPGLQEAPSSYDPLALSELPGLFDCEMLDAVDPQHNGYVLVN

SIK3 = SIK3 (Homo sapiens (Human), UniProt Q9Y2K2); experiment: Percent activity against SIK3 at 1 μM; type: biochemical; settings: for SIK3 % ACTIVITY: compound at 1 μM, approximate Km for ATP
Chain of SIK3 (Q9Y2K2 whole entry): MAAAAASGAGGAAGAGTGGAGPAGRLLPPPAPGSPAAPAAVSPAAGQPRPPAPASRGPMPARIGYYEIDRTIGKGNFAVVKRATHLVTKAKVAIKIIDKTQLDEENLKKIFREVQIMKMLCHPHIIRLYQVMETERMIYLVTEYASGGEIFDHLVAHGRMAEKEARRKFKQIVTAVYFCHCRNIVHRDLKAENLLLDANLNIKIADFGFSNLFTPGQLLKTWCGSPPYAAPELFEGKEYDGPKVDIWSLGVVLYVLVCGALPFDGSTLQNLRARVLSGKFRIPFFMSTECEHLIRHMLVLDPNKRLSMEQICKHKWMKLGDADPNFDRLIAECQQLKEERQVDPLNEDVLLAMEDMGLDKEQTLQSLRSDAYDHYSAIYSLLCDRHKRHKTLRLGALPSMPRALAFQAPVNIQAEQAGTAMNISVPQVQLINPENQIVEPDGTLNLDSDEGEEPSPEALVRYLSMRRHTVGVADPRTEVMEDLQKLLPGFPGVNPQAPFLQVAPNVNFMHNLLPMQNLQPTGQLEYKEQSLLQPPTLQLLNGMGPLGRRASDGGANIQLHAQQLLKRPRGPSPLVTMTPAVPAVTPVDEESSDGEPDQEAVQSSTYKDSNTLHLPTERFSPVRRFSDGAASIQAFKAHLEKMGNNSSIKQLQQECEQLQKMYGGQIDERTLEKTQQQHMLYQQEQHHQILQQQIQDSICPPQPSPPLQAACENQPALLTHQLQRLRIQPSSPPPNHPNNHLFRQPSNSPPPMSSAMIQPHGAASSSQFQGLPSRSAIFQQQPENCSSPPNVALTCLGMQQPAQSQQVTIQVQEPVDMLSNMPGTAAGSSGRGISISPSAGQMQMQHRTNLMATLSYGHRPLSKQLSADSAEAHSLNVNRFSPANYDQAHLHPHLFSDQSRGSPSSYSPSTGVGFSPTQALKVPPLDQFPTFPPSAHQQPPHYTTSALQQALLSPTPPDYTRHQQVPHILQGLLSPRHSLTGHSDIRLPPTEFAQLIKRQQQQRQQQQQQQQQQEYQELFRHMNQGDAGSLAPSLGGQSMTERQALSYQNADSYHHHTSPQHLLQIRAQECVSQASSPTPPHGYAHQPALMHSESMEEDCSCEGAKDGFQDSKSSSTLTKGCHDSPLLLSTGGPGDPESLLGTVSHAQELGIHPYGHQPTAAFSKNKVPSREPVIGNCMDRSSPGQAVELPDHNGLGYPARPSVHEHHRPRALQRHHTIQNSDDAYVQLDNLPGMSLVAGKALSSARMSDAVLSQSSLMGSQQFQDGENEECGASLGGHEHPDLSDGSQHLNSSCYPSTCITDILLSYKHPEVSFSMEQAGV

[1] = qAC50 biological assay (Table 4); settings: for Data Mode: curve direction of qAC50 data
Viability loss (Table 4) = type: cell-based
[2] = target: full length His6-MBP-tagged hSIK2 (Homo sapiens (Human), UniProt Q9H0K1); experiment: SIK2 kinase activity assay (Caliper-based mobility shift); type: biochemical; settings: 4 nM hSIK2, 30 μM ATP, 1 hr, rt
Chain of full length His6-MBP-tagged hSIK2 (Q9H0K1 whole entry): as the sequence (Q9H0K1 whole entry) above
Procedure: Reactions were quenched by adding 20 mM EDTA (pH 8) after 1 hr, and percentage of substrate conversion was measured by LabChip EZ Reader II (PerkinElmer).

Chain of SIK1 (P57059 whole entry): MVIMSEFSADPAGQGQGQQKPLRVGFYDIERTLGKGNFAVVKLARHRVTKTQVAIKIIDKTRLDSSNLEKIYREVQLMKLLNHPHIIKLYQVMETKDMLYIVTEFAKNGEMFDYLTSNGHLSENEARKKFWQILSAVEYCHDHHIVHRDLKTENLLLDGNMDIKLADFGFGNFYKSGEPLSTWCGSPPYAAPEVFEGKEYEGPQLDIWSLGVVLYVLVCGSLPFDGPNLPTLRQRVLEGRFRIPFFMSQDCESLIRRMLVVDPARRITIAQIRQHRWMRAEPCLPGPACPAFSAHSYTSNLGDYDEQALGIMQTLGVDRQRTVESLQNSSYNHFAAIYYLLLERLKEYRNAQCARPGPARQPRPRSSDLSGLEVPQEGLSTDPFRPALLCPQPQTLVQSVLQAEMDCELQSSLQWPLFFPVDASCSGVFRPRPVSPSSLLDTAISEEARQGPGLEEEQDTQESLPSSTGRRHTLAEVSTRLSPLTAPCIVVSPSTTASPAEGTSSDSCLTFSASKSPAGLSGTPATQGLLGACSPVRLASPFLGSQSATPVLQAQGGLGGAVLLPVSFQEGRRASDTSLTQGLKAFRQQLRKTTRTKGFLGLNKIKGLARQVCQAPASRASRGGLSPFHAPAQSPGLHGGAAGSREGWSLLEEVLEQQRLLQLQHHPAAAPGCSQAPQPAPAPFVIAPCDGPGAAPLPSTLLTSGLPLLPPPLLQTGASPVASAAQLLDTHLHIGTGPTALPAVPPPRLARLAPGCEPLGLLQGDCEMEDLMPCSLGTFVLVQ

Row | Structure (SMILES) | Enzyme activity at 1 μM (%) SIK1 (SIK1) | SIK1 % ACTIVITY (SIK1) | Enzyme activity at 1 μM (%) SIK2 (SIK2) | SIK2 % ACTIVITY (SIK2) | Enzyme activity at 1 μM (%) SIK3 (SIK3) | SIK3 % ACTIVITY (SIK3) | qAC50 [1] | Data Mode [1] | Viability loss AC40 (Viability loss (Table 4)) | Viability loss data mode (Viability loss (Table 4)) | IC50 [2]
1 | COc1ccc(N2C(=O)N(c3c(C)cccc3C)Cc3cnc(Nc4ccc(N5CCN(C)CC5)cc4OC)nc32)c(OC)c1 [HG-11-139-01] | 15.3% | 15.3% | 2.1% | 2.1% | 7.5% | 7.5% | <50 nM | increasing | 8910 nM | decreasing | –
2 | COc1ccc(N2C(=O)N(c3c(C)cccc3C)Cc3cnc(Nc4cc(N5CCOCC5)cc(N5CCN(C)CC5)c4)nc32)c(OC)c1 [HG-11-143-01] | 7.9% | 7.9% | 4.3% | 4.3% | 9.3% | 9.3% | 469 nM | decreasing | – | – | –
3 | Cc1ccc(Nc2ncc3c(n2)N(C)C(=O)N(c2cc(NC(=O)c4cccc(C(F)(F)F)c4)ccc2C)C3)cn1 [GNF-7] | – | 12.0% | – | 27.4% | – | – | – | – | – | – | –
4 | Cc1ccc(NC(=O)c2cccc(C(F)(F)F)c2)cc1N1Cc2cnc(Nc3ccc(N4CCN(C)CC4)cc3)nc2N(C)C1=O [HG-11-23-01] | 12.5% | 12.5% | 7% | 7.0% | – | – | <50 nM | decreasing | 106 nM | decreasing | –
5 | COc1ccc(N2C(=O)N(c3c(C)cccc3Cl)Cc3cnc(Nc4ccc(N5CCN(C)CC5)cc4)nc32)nc1 [YKL-05-95] | – | – | – | – | – | – | – | – | – | – | 6 ± 3 nM
6 | CN1CCN(c2ccc(Nc3ncc4c(n3)N(C)C(=O)N(c3ccccc3)C4)cc2)CC1 [HG-11-137-01] | 12.9% | 12.9% | 1.4% | 1.4% | 8.6% | 8.6% | 466 nM | increasing | 6960 nM | decreasing | –
7 | COc1ccc(N2C(=O)N(c3c(C)cccc3Cl)Cc3cnc(Nc4ccc(N5CCN(C)CC5)cc4OC)nc32)nc1 [YKL-05-96] | – | – | – | – | – | – | – | – | – | – | 34 ± 14 nM
8 | COc1cc(N2CCN(C)CC2)ccc1Nc1ncc2c(n1)N(C)C(=O)N(c1ccccc1)C2 [HG-11-139-02] | – | 36.0% | – | 32.8% | – | – | >26000 nM | increasing | > 10000 nM | inactive | –
